From patent US20250129069A1, “TRIAZOLO WRN INHIBITORS” (Nimbus Wadjet, Inc., priority 2023, published 2025)
Like-named read-outs stand apart in the source and are kept apart here.

Assays:
[1] = biological target: human Werner helicase (WRN, amino acids 517-1235 with L1074F point mutation) (Homo sapiens (Human), UniProt Q14191, L1074F); experiment: WRN (BV08) ADP-Glo assay; type: biochemical; conditions: human WRN (aa 517-1235, L1074F), read-out: ADP-Glo_hWRN_IC50
Method in brief: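 ADP-Glo luminescence read after 60 min, 25 °C reaction of 0.15 nM WRN (517-1235, L1074F, Sf9-expressed, tag removed) with 0.1 nM DNA duplex and 5 μM ATP, following 15 min compound preincubation; 20 mM Bicine pH 7.5, 1% DMSO. IC50 from 3- or 4-parameter fit of % inhibition.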

[2] = system: p21 induction in HCT 116 cells; experiment: p21 induction in cells (In-Cell Western, p21/GAPDH ratio); type: cell-based; conditions: 24 h compound incubation, read-out: p21_EC50
Method in brief: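 EC50 values come from nonlinear fits of percent activation, defined by the 800/700 nm p21-to-GAPDH ratio scaled between DMSO (low) and internal WRN inhibitor (high) controls. In-Cell Western read after 24 h compound exposure of HCT 116 cells at 37° C. Duplicate 11-point series, 2-fold steps, usually starting at 10 μM.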

Chain of human Werner helicase (WRN, amino acids 517-1235 with L1074F point mutation) (Q14191 other isoform, or with tags, fused parts or gaps L1074F (already in the parent)): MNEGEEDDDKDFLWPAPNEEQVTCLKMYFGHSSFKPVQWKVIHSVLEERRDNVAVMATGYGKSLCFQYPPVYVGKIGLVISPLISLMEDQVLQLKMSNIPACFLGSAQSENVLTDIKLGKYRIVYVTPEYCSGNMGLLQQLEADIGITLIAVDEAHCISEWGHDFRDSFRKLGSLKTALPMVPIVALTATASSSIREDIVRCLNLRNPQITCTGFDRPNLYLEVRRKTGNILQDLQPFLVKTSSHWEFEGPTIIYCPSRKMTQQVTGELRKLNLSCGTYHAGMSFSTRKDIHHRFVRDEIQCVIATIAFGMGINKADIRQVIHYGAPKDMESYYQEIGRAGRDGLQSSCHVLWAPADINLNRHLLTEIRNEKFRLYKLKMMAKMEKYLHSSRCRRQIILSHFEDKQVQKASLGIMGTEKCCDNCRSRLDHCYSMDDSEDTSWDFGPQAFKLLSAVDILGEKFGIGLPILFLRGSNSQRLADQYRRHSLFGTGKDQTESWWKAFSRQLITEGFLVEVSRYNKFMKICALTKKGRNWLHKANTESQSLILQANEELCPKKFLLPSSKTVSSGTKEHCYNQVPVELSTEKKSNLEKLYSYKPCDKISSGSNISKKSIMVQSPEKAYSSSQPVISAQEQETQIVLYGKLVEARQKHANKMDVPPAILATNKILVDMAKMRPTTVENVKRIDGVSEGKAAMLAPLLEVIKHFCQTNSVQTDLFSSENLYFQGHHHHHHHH

| IC50 [1] | EC50 ([2]; Homo sapiens) | EC50 [2] | SMILES |
| --- | --- | --- | --- |
| 5 to 50 nM | 500 to 2000 nM | – | CCc1c(N2CCN(C(=O)c3ncnc(C)c3O)[C@H]3CC[C@@H]32)c(=O)c2nn(-c3ccnc(OC)c3)nc2n1CC(=O)NC1CC2(CC(C)C2)C1 (stereo partly drawn) [Compound I-88, 2-{5-ethyl-6-[(1S,6S)-5-(5-hydroxy-6-methylpyrimidine-4-carbonyl)-2,5-diazabicyclo[4.2.0]octan-2-yl]-2-(2-methoxypyridin-4-yl)-7-oxo-2H,4H,7H-[1,2,3]triazolo[4,5-b]pyridin-4-yl}-N-{6-methylspiro[3.3]heptan-2-yl}acetamide] |
| 5 to 50 nM | ≤ 500 nM | – | CCc1c(N2CCN(C(=O)c3ncnc(C)c3O)[C@H]3CC[C@@H]32)c(=O)c2nn(-c3ccnc(OC)c3)nc2n1CC(=O)NC1CC2(CCCC2)C1 [Compound I-89, 2-{5-ethyl-6-[(1S,6S)-5-(5-hydroxy-6-methylpyrimidine-4-carbonyl)-2,5-diazabicyclo[4.2.0]octan-2-yl]-2-(2-methoxypyridin-4-yl)-7-oxo-2H,4H,7H-[1,2,3]triazolo[4,5-b]pyridin-4-yl}-N-{spiro[3.4]octan-2-yl}acetamide] |
| 5 to 50 nM | – | ≤ 500 nM | CCc1c(N2CCN(C(=O)c3ncnc(C)c3O)[C@H]3CC[C@@H]32)c(=O)c2nn(-c3ccccn3)nc2n1CC(=O)NC12CC(C(C)C)(C1)C2 [Compound I-90, 2-{5-ethyl-6-[(1S,6S)-5-(5-hydroxy-6-methylpyrimidine-4-carbonyl)-2,5-diazabicyclo[4.2.0]octan-2-yl]-7-oxo-2-(pyridin-2-yl)-2H,4H,7H-[1,2,3]triazolo[4,5-b]pyridin-4-yl}-N-[3-(propan-2-yl)bicyclo[1.1.1]pentan-1-yl]acetamide] |
| 5 to 50 nM | – | ≤ 500 nM | CCc1c(N2CCN(C(=O)c3c(OC)ncc(C)c3O)[C@H]3CC[C@@H]32)c(=O)c2nn(C3=CCOCC3)nc2n1CC(=O)NC12CC(C(C)C)(C1)C2 [Compound I-92, 2-[2-(3,6-dihydro-2H-pyran-4-yl)-5-ethyl-6-[(1S,6S)-5-(4-hydroxy-2-methoxy-5-methylpyridine-3-carbonyl)-2,5-diazabicyclo[4.2.0]octan-2-yl]-7-oxo-2H,4H,7H-[1,2,3]triazolo[4,5-b]pyridin-4-yl]-N-[3-(propan-2-yl)bicyclo[1.1.1]pentan-1-yl]acetamide] |
| 5 to 50 nM | ≤ 500 nM | – | CCc1c(N2CCN(C(=O)c3c(OC)ncc(C)c3O)[C@H]3CC[C@@H]32)c(=O)c2nn(-c3ccnc(OC)c3)nc2n1CC(=O)NC1CC2(CCC2)C1 [Compound I-93, 2-{5-ethyl-6-[(1S,6S)-5-(4-hydroxy-2-methoxy-5-methylpyridine-3-carbonyl)-2,5-diazabicyclo[4.2.0]octan-2-yl]-2-(2-methoxypyridin-4-yl)-7-oxo-2H,4H,7H-[1,2,3]triazolo[4,5-b]pyridin-4-yl}-N-{spiro[3.3]heptan-2-yl}acetamide] |
| 5 to 50 nM | ≤ 500 nM | – | CCc1c(N2CCN(C(=O)c3c(OC)ncc(C)c3O)[C@H]3CC[C@@H]32)c(=O)c2nn(-c3ccnc(C)c3)nc2n1CC(=O)NC12CC(C(C)C)(C1)C2 [Compound I-94, 2-{5-ethyl-6-[(1S,6S)-5-(4-hydroxy-2-methoxy-5-methylpyridine-3-carbonyl)-2,5-diazabicyclo[4.2.0]octan-2-yl]-2-(2-methylpyridin-4-yl)-7-oxo-2H,4H,7H-[1,2,3]triazolo[4,5-b]pyridin-4-yl}-N-[3-(propan-2-yl)bicyclo[1.1.1]pentan-1-yl]acetamide] |
| ≤ 5 nM | ≤ 500 nM | – | CCc1c(N2CCN(C(=O)c3c(OC)ncc(C)c3O)[C@H]3CC[C@@H]32)c(=O)c2nn(-c3ccnc(C)c3)nc2n1CC(=O)Nc1ccc(C(F)(F)F)cc1F [Compound I-95, 2-{5-ethyl-6-[(1S,6S)-5-(4-hydroxy-2-methoxy-5-methylpyridine-3-carbonyl)-2,5-diazabicyclo[4.2.0]octan-2-yl]-2-(2-methylpyridin-4-yl)-7-oxo-2H,4H,7H-[1,2,3]triazolo[4,5-b]pyridin-4-yl}-N-[2-fluoro-4-(trifluoromethyl)phenyl]acetamide] |
| ≤ 5 nM | – | ≤ 500 nM | CCc1c(N2CCN(C(=O)c3ncnc(C)c3O)[C@H]3CC[C@@H]32)c(=O)c2nn(-c3ccnc(C)c3)nc2n1CC(=O)Nc1ccc(C(F)(F)F)cc1Cl [Compound I-96, N-[2-chloro-4-(trifluoromethyl)phenyl]-2-{5-ethyl-6-[(1S,6S)-5-(5-hydroxy-6-methylpyrimidine-4-carbonyl)-2,5-diazabicyclo[4.2.0]octan-2-yl]-2-(2-methylpyridin-4-yl)-7-oxo-2H,4H,7H-[1,2,3]triazolo[4,5-b]pyridin-4-yl}acetamide] |
| 5 to 50 nM | ≤ 500 nM | – | CCc1c(N2CCN(C(=O)c3c(OC)ncc(C)c3O)CC2)c(=O)c2nn(C3=CCOCC3)nc2n1CC(=O)NC12CC(C3CC3)(C1)C2 [Compound I-97, N-{3-cyclopropylbicyclo[1.1.1]pentan-1-yl}-2-[2-(3,6-dihydro-2H-pyran-4-yl)-5-ethyl-6-[4-(4-hydroxy-2-methoxy-5-methylpyridine-3-carbonyl)piperazin-1-yl]-7-oxo-2H,4H,7H-[1,2,3]triazolo[4,5-b]pyridin-4-yl]acetamide] |
| 5 to 50 nM | ≤ 500 nM | – | CCOc1ncc(C)c(O)c1C(=O)N1CCN(c2c(CC)n(CC(=O)NC34CC(C(C)C)(C3)C4)c3nn(-c4ccnc(OC)c4)nc3c2=O)CC1 [Compound I-98, 2-{6-[4-(2-ethoxy-4-hydroxy-5-methylpyridine-3-carbonyl)piperazin-1-yl]-5-ethyl-2-(2-methoxypyridin-4-yl)-7-oxo-2H,4H,7H-[1,2,3]triazolo[4,5-b]pyridin-4-yl}-N-[3-(propan-2-yl)bicyclo[1.1.1]pentan-1-yl]acetamide] |
| 5 to 50 nM | 500 to 2000 nM | – | CCc1c(N2CCN(C(=O)c3c(OC)ncc(C)c3O)CC2)c(=O)c2nn(-c3ccnc(OC)c3)nc2n1CC(=O)NC1CC2(CCCC2)C1 [Compound I-99, 2-{5-ethyl-6-[4-(4-hydroxy-2-methoxy-5-methylpyridine-3-carbonyl)piperazin-1-yl]-2-(2-methoxypyridin-4-yl)-7-oxo-2H,4H,7H-[1,2,3]triazolo[4,5-b]pyridin-4-yl}-N-{spiro[3.4]octan-2-yl}acetamide] |
| 5 to 50 nM | ≤ 500 nM | – | CCc1c(N2CCN(C(=O)c3c(OC)ncc(C)c3O)[C@H]3CC[C@@H]32)c(=O)c2nn(-c3ccnc(C)c3)nc2n1CC(=O)Nc1ccc(C(F)(F)F)cc1Cl [Compound I-100, N-[2-chloro-4-(trifluoromethyl)phenyl]-2-{5-ethyl-6-[(1S,6S)-5-(4-hydroxy-2-methoxy-5-methylpyridine-3-carbonyl)-2,5-diazabicyclo[4.2.0]octan-2-yl]-2-(2-methylpyridin-4-yl)-7-oxo-2H,4H,7H-[1,2,3]triazolo[4,5-b]pyridin-4-yl}acetamide] |
| 5 to 50 nM | 500 to 2000 nM | – | CCc1c(N2CCN(C(=O)c3ncnc(C)c3O)CC2)c(=O)c2nn(-c3ccccn3)nc2n1CC(=O)NC12CC(C(C)C)(C1)C2 [Compound I-101, 2-{5-ethyl-6-[4-(5-hydroxy-6-methylpyrimidine-4-carbonyl)piperazin-1-yl]-7-oxo-2-(pyridin-2-yl)-2H,4H,7H-[1,2,3]triazolo[4,5-b]pyridin-4-yl}-N-[3-(propan-2-yl)bicyclo[1.1.1]pentan-1-yl]acetamide] |
